Assay results published in US11192888B2, “Antibacterial compounds” (priority 2017, dated 2021).
Converted amounts (≈) assume the structure as drawn. “And” between values parts separate entries of the source, which are not always exact repeats. Equal entries are not always repeated. Where two headings read alike, the source gives them in different places. *1 amine or outer side, *2 acyl side, *3 side chain or, on linkers, in order; H or OH if unused. Where a SMILES comes first, the peptide text is derived from it. [ ]: non-standard residue; d: D form. dAla(ψthiazole) = C[C@@H](N[*:1])c1nc(C(=O)[*:2])cs1; Trp(4-Br) = N[C@@H](Cc1c[nH]c2cccc(Br)c12)C(=O)O; Dhb = C/C=C(\N)C(=O)O; Sar = CNCC(=O)O

Tests used:
[1] = tested on: Bacteroides fragilis ATCC 25285; conditions: Bacteroides fragilis, ATCC25285
[2] = tested on: B. multivorans ATCC17616
[3] = tested on: Clostridium difficile strains (21 clinical, 7 reference)
[4] = tested on: Staphylococcus aureus ATCC 29213
[5] = tested on: Clostridium perfringens NCTC 8237
[6] = tested on: Clostridium innocuum DSM 1286
[7] = tested on: Corynebacterium urealyticum NCTC 12011
[8] = tested on: Actinomyces viscosus DSM 43327
[9] = tested on: C. difficile ATCC 43255 (aka VPI 10463; ribotype 087); test: Mouse model of C. difficile-associated disease; format: in vivo, C57BL/6 mice
[10] = tested on: Clostridium ramosum DSM 1402
[11] = tested on: Propionibacterium acnes ATCC 6919
[12] = tested on: Enterococcus faecalis ATCC 29212
[13] = tested on: Enterobacter cloacae NCTC 13406
[14] = tested on: Clostridium scindens; test: Growth of Clostridium scindens (separate study); format: cell-based; conditions: at 80.0 μg/mL
Source text: It is known that the presence of Clostridium scindens in the gut can help to keep Clostridium difficile at bay. […] This would not be the case if a broad-spectrum antibiotic, such as vancomycin or metronidazole, was to be used. The lack of activity against Clostridium scindens would, therefore, further help the gut to recover from Clostridium difficile infection.

[15] = tested on: 23 representatives of normal gut flora; test: CLSI MIC, whole panel of representative gut bacteria; format: cell-based; conditions: at 64 μg/mL
[16] = tested on: Bifidobacterium bifidum ATCC 11863
[17] = tested on: Clostridium sordellii ATCC 9714; test: CLSI MIC, representative gut bacteria; format: cell-based
Description: (§1) Comparative in vitro bacterial susceptibility to compounds 3, 9 and 10, vancomycin and metronidazole was determined using methods according to the Clinical and Laboratory Standard Institute (CLSI) approved guidelines (M7-A10, M11-A7 or M45-A2) for anaerobic and aerobic organisms.

[18] = tested on: Clostridium difficile ATCC 43255; test: CLSI MIC, representative gut bacteria; format: cell-based
Description: as §1

[19] = tested on: Lactobacillus rhamnosus ATCC 53103
[20] = tested on: C. difficile BI1 (BI/NAP1, ribotype 027); test: Hamster model of C. difficile-associated disease; format: in vivo, Golden Syrian hamsters
[21] = mice
Description: In this study, a single oral dose of compound 3 in 0.5% w/v aqueous methylcellulose at 5 mg/kg was administered to nine mice in a 10 mL/kg dosing volume and housed in metabolism cages. Following administration of the compound, serial blood samples of 50 μL was taken from the lateral tail vein at each of 7 post-dosing time-points (0.25, 0.5, 1, 2, 4, 7 and 24 h). Whole blood samples were then diluted 1:1 with water and two 40 μL aliquots were pipetted into duplicate 96 well plate tubes. At the end of 24 h, all faecal samples were collected and pooled. A quantitative bioanalysis by LC-MS/MS of the blood and faecal levels of compound 3 was carried out to determine the oral absorbability and gastrointestinal metabolic stability of compound 3.
To evaluate the metabolic stability of orally administered compound 3, metabolite profiling of the faecal sample was performed.

[22] = tested on: Enterococcus faecium NCTC 12204
[23] = tested on: Bifidobacterium breve ATCC 15700
[24] = tested on: Pseudomonas aeruginosa NCTC 13437
[25] = tested on: Corynebacterium jeikeium NCTC 11914

C/C=C1\NC(=O)[C@@H](C)NC(=O)CNC(=O)[C@H](Cc2c[nH]c3cccc(Br)c23)NC(=O)[C@H](Cc2c[nH]c3ccccc23)NC(=O)c2csc(n2)[C@@H](C)NC(=O)CN(C)C1=O [Compound 10, Cyclo[D-Ala-Thz-Trp-Trp(4-Br)-Gly-D-Ala-Dhb-Sar]] (cyclo([Dhb][Sar][dAla(ψthiazole)]W[Trp(4-Br)]G[dA]))
MIC [1]: > 64 µg/mL | IC50 ([2]; ATCC17616, 25 h): 840 ± 100 nM | times more potent than Argyrin A ([2]; against B. multivorans): 4 to 5 | MIC40 ([3]; 28 C. difficile strains): 0.25 µg/mL (≈ 0.282 µM) | MIC50 ([3]; 28 C. difficile strains): 0.50 µg/mL (≈ 0.563 µM) | MIC90 ([3]; 28 C. difficile strains): 0.50 µg/mL (≈ 0.563 µM) | MIC ([3]; C. difficile strain 630 (ribotype 012)): 0.25 µg/mL (≈ 0.282 µM) | MIC ([3]; C. difficile strain ATCC 9689 (ribotype 001)): 0.5 µg/mL (≈ 0.563 µM) | MIC ([3]; C. difficile strain ATCC 13366): 1 µg/mL (≈ 1.13 µM) | MIC ([3]; C. difficile strain ATCC 43255): 0.25 µg/mL (≈ 0.282 µM) | MIC ([3]; C. difficile strain ATCC 700057 (ribotype 038)): 0.25 µg/mL (≈ 0.282 µM) | MIC ([3]; C. difficile strain ATCC BAA 1875 (ribotype 078)): 0.5 µg/mL (≈ 0.563 µM) | MIC ([3]; C. difficile strain BI1-FDX^R): 0.25 µg/mL (≈ 0.282 µM) | MIC ([3]; C. difficile strain Clin. 1): 0.25 µg/mL (≈ 0.282 µM) | MIC ([3]; C. difficile strain Clin. 2): 0.5 µg/mL (≈ 0.563 µM) | MIC ([3]; C. difficile strain Clin. 3): 0.25 µg/mL (≈ 0.282 µM) | MIC ([3]; C. difficile strain Clin. 5): 0.5 µg/mL (≈ 0.563 µM) | MIC ([3]; C. difficile strain Clin. 6): 0.5 µg/mL (≈ 0.563 µM) | MIC ([3]; C. difficile strain Clin. 7): 0.25 µg/mL (≈ 0.282 µM) | MIC ([3]; C. difficile strain Clin. 8): 0.5 µg/mL (≈ 0.563 µM) | MIC ([3]; C. difficile strain Clin. 9): 0.5 µg/mL (≈ 0.563 µM) | MIC ([3]; C. difficile strain Clin. 10): 0.25 µg/mL (≈ 0.282 µM) | MIC ([3]; C. difficile strain Clin. 11): 0.5 µg/mL (≈ 0.563 µM) | MIC ([3]; C. difficile strain Clin. 12): 0.25 µg/mL (≈ 0.282 µM) | MIC ([3]; C. difficile strain Clin. 13): 0.5 µg/mL (≈ 0.563 µM) | MIC ([3]; C. difficile strain Clin. 14): 0.5 µg/mL (≈ 0.563 µM) | MIC ([3]; C. difficile strain Clin. 15): 0.5 µg/mL (≈ 0.563 µM) | MIC ([3]; C. difficile strain Clin. 16): 0.25 µg/mL (≈ 0.282 µM) | MIC ([3]; C. difficile strain Clin. 18): 0.5 µg/mL (≈ 0.563 µM) | MIC ([3]; C. difficile strain Clin. 20): 0.25 µg/mL (≈ 0.282 µM) | MIC ([3]; C. difficile strain Clin. 21): 0.5 µg/mL (≈ 0.563 µM) | MIC ([3]; C. difficile strain Clin. 22): 0.5 µg/mL (≈ 0.563 µM) | MIC ([3]; C. difficile strain Clin. 23): 0.5 µg/mL (≈ 0.563 µM) | MIC ([3]; C. difficile strain Clin. 24): 0.25 µg/mL (≈ 0.282 µM) | share of the C. difficile strains tested that are susceptible ([3]; at 0.25 μg/mL): 43% | MIC against C. difficile ([3]; range over strains): 0.25 to 0.50 µg/mL | MIC [4]: >64 µg/mL | MIC [5]: 64 µg/mL (≈ 72.1 µM) | MIC [6]: >64 µg/mL | MIC [7]: >64 µg/mL | MIC [8]: 8 µg/mL (≈ 9.01 µM) | survival to the end of the study at day-21 post-infection ([9]; 1 mg/kg): 80% | Mean survival ([9]; 1 mg/kg oral BD for 5 days): 504.00 h | survival to the end of the study at day-21 post-infection ([9]; 2.5 mg/kg): 70% | Mean survival ([9]; 2.5 mg/kg oral BD for 5 days): 504.00 h | reduction in C. difficile spore burden in the caecum vs vehicle controls ([9]; 5 mg/kg): 1.73 Log10 spore/mL | reduction in C. difficile spore burden in the colon vs vehicle controls ([9]; 5 mg/kg): 1.11 Log10 spore/mL | survival to the end of the study at day-21 post-infection ([9]; 5 mg/kg): 90% | Mean survival ([9]; 5 mg/kg oral BD for 5 days): 504.00 h | MIC [10]: >64 µg/mL | MIC [11]: >64 µg/mL | MIC [12]: >64 µg/mL | MIC [13]: >64 µg/mL | growth of Clostridium scindens [14]: unaffected | share of the 23 representatives of normal gut flora that are insensitive [15]: Approximately 90% | MIC [16]: >64 µg/mL | MIC [17]: 1.0 µg/mL (≈ 1.13 µM) | fold more potent against C. difficile ATCC 43255 compared to Bacteroides fragilis [18]: at least 256 fold | MIC ([18]; Clostridium difficile ATCC 43255): 0.25 µg/mL (≈ 0.282 µM) | MIC [19]: >64 µg/mL | hamsters that succumbed to the disease within 36 hours post-infection ([20]; 0.2 mg/kg): 100% | Mean survival ([20]; 0.2 mg/kg oral twice daily for 5 days): 35.75 h | animals reaching the end of the study at day-21 post-infection ([20]; 1.0 mg/kg and 2.5 mg/kg twice daily): 10% | Mean survival ([20]; 1.0 mg/kg oral twice daily for 5 days): 155 h and 154.63 h | average survival ([20]; 1.0 mg/kg twice daily): 6.5 days | increase in survival time compared to vehicle control ([20]; 1.0 mg/kg twice daily): 4.7 fold | Mean survival ([20]; 2.5 mg/kg oral twice daily for 5 days): 206 h and 205.92 h | average survival ([20]; 2.5 mg/kg twice daily): 8.5 days | increase in survival time compared to vehicle control ([20]; 2.5 mg/kg twice daily): 6.3 fold | survival at day 6 post-infection ([20]; 2.5 mg/kg twice daily): 100% | survival time compared to the vehicle control ([20]; 0.2, 1.0 and 2.5 mg/kg, non-optimised doses): significant dose dependent increase in survival time | compound recovered from pooled faeces ([21]; oral 5 mg/kg, 24 h): up to 90% | faecal concentration, times above the MIC against C. difficile ([21]; single 5 mg/kg oral dose): more than 200 | MIC [22]: >64 µg/mL | MIC [23]: >64 µg/mL | MIC [24]: >64 µg/mL | MIC [25]: >64 µg/mL
